The record followed here is ChEMBL document CHEMBL1649337, “Triterpenoidal alkaloids from Buxus natalensis and their acetylcholinesterase inhibitory activity” (J Nat Prod, 2010).

The experiment deals with Acetylcholinesterase (Homo sapiens, UniProt P22303). The experiment is described as follows: Inhibition of AChE by Ellman's method. In general terms: Ellman's reagent forms a yellow product with free thiols.
Chain of Acetylcholinesterase (P22303 whole entry): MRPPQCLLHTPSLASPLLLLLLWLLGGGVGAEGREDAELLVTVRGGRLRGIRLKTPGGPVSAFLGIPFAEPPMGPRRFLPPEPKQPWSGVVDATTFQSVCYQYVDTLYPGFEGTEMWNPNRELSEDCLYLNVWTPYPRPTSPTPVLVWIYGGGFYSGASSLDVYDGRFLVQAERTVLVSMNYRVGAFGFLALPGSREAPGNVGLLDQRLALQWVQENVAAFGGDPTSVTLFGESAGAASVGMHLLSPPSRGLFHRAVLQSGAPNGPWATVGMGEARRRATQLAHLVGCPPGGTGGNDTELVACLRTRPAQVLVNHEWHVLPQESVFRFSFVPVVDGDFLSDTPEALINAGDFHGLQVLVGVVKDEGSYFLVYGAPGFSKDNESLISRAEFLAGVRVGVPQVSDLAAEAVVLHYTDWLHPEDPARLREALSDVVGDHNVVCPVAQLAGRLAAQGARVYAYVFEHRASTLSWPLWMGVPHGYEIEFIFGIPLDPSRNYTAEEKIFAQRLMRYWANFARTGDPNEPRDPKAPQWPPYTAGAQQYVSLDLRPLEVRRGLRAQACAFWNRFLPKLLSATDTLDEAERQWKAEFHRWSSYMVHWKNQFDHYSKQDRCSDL

For the molecule `C[C@@H]([C@H]1[C@H](O)C[C@@]2(C)[C@@H]3C=C[C@H]4C(C)(C)[C@@H](N(C)C)[C@H](O)C[C@@]45C[C@@]35CC[C@]12C)N(C)C` [CYCLONATAMINOL], the IC50 (read-out: IC50) was found to be 22.9 µM. With `C[C@@H]([C@H]1CC[C@@]2(C)[C@@H]3CC[C@@H]4C(=CC3=CC[C@]12C)CC[C@H](N(C)C)C4(C)C)N(C)C` [BUXAMINE A], the IC50 (read-out: IC50) was determined as 80 µM. The same measure, in the same setting: in the case of `CC(=O)O[C@H]1C[C@@H]2C(=CC[C@]3(C)[C@@H]([C@H](C)N(C)C)[C@H](O)C[C@@]23C)C[C@@]23O[C@@H]2[C@H]2OC[C@](C)([C@H]2NC(=O)c2ccccc2)[C@H]13` it was 3 µM; in that of `C[C@@H]([C@H]1[C@H](O)C[C@@]2(C)[C@@H]3C[C@H](O)[C@H]4[C@]5(C)CO[C@]4(C=C[C@@H]5NC(=O)c4ccccc4)CC3=CC[C@]12C)N(C)C`, 8.5 µM. Still for that read-out and setting: the value for `C[C@@H]([C@H]1[C@H](O)C[C@@]2(C)[C@@H]3CC[C@@H]4C(=CC3=CC[C@]12C)CC[C@H](N(C)C)C4(C)C)N(C)C` [BUXAMINOL A] was 29.8 µM; that for `CC(=O)O[C@@H]1C[C@@]2(C)[C@@H]3CC[C@H]4[C@](C)(CO)[C@@H](NC(=O)c5ccccc5)C=C[C@]4(O)CC3=CC[C@]2(C)[C@H]1[C@H](C)N(C)C` [BUXALONGIFOLAMIDINE] was 30.2 µM; that for `C/C=C1/C(=O)C[C@@]2(C)[C@@H]3CC[C@H]4C(C)(C)[C@@H](N(C)C)CC[C@@]45C[C@@]35CC[C@]12C` [CYCLOBUXOPHYLLINE K] was 58.2 µM.

Take `C[C@@H]1[C@@H]2CC[C@@H]3C(=CC[C@]4(C)[C@@H]([C@H](C)N(C)C)[C@H](O)C[C@@]34C)C=C2CC[C@@H]1N(C)C` [31-DEMETHYLBUXAMINOL]: for the setting “read-out: IC50”, the 50% inhibitory concentration (IC50) stood at 25.8 µM. Regarding `CC(=O)O[C@@H]1C[C@@]2(C)[C@@H]3C[C@H]4OC[C@@]5(C)[C@@H](NC(=O)c6ccccc6)C=C[C@@](O)(CC3=CC[C@]2(C)[C@H]1[C@H](C)N(C)C)[C@@H]45` [BUXAFURANAMIDE], the 50% inhibitory concentration (IC50) (read-out: IC50) stood at 14 µM. As to `NCCCCNC(=O)/C=C/c1ccc(O)cc1` [P-COUMAROYLPUTRESCINE], the IC50 entry was “Not Active”. Regarding `CN[C@H]1CCC2=CC3=CC[C@]4(C)[C@@H]([C@H](C)N(C)C)[C@H](O)C[C@@]4(C)[C@@H]3CC[C@H]2C1(C)C` [BUXAMINOL C], the IC50 (read-out: IC50) is 40 µM.

Broadly, the IC50 is the concentration at which inhibition is half-maximal.
